Data reported in the supplement of paper PMC10307832.

What was measured:
Experiment in all cases: relative viability (nuclei count vs DMSO), 5 days (fraction); higher = more cells survive
[1] = compound: CNC(=O)c1cc(Oc2ccc(NC(=O)Nc3ccc(Cl)c(C(F)(F)F)c3)cc2)ccn1 [Sorafenib] + Cc1cc(Nc2cc(N3CCN(C)CC3)nc(Sc3ccc(NC(=O)C4CC4)cc3)n2)n[nH]1 [Tozasertib] (partner 0.1 µM)
How it was run: (§1)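 For relative viability, nuclei counts in treated wells were divided by those in vehicle wells. Lung cancer cell lines had been pin-tool dosed in 1536-well plates the day after seeding and cultured for 5 days, then fixed and stained in one step (final 0.05% Triton X-100, 1% formaldehyde, 1 ug/ml Hoechst) and imaged at 4×. Doses were one drug alone or a fixed anchor-drug dose plus five library-drug doses (not always all listed) in √10 steps, and values are duplicate-plate medians.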

[2] = compound: CNC(=O)c1cc(Oc2ccc(NC(=O)Nc3ccc(Cl)c(C(F)(F)F)c3)cc2)ccn1 [Sorafenib] + CC(C)C[C@H](NC(=O)[C@H](Cc1ccccc1)NC(=O)c1cnccn1)B(O)O [Bortezomib] (partner 0.002 µM)
How it was run: as §1

[3] = compound: CNC(=O)c1cc(Oc2ccc(NC(=O)Nc3ccc(Cl)c(C(F)(F)F)c3)cc2)ccn1 [Sorafenib] + Nc1nc2[nH]cc(CCc3ccc(C(=O)N[C@@H](CCC(=O)O)C(=O)O)cc3)c2c(=O)[nH]1 [Pemetrexed] (partner 0.2 µM)
How it was run: as §1

[4] = compound: CNC(=O)c1cc(Oc2ccc(NC(=O)Nc3ccc(Cl)c(C(F)(F)F)c3)cc2)ccn1 [Sorafenib] + COc1cc2c(Oc3ccc(NC(=O)C4(C(=O)Nc5ccc(F)cc5)CC4)cc3F)ccnc2cc1OCCCN1CCOCC1 [Foretinib] (partner 0.25 µM)
How it was run: as §1

[5] = compound: CNC(=O)c1cc(Oc2ccc(NC(=O)Nc3ccc(Cl)c(C(F)(F)F)c3)cc2)ccn1 [Sorafenib] + CC(=O)Nc1cccc(-n2c(=O)n(C3CC3)c(=O)c3c(Nc4ccc(I)cc4F)n(C)c(=O)c(C)c32)c1 [Trametinib] (partner 0.02 µM)
How it was run: as §1

Cell Line	relative viability ([1]; first compound 0.08 µM)	relative viability ([1]; first compound 0.253 µM)	relative viability ([1]; first compound 2.53 µM)	relative viability ([1]; first compound 8 µM)	relative viability ([2]; first compound 0.08 µM)	relative viability ([2]; first compound 0.253 µM)	relative viability ([2]; first compound 2.53 µM)	relative viability ([2]; first compound 8 µM)	relative viability ([3]; first compound 0.08 µM)	relative viability ([3]; first compound 0.253 µM)	relative viability ([3]; first compound 2.53 µM)	relative viability ([3]; first compound 8 µM)	relative viability ([4]; first compound 0.08 µM)	relative viability ([4]; first compound 2.53 µM)	relative viability ([4]; first compound 8 µM)	relative viability ([5]; first compound 0.08 µM)	relative viability ([5]; first compound 0.253 µM)	relative viability ([5]; first compound 2.53 µM)	relative viability ([5]; first compound 8 µM)	relative viability ([4]; first compound 0.253 µM)
H3255	0.588	0.458	0.72	0.482	0.841	0.706	1.05	0.726	0.636	0.554	0.587	0.47	1.06	0.829	0.567	0.619	0.563	0.463	0.364	–
NCI-H2347	0.646	0.599	0.509	0.426	1.13	0.997	1.02	0.868	0.442	0.398	0.425	0.413	1.41	0.953	0.775	0.3	0.308	0.266	0.314	0.673
A-427	0.21	0.261	0.217	0.132	0.953	0.922	0.96	0.817	0.926	0.919	1.05	0.954	1.24	0.94	0.754	0.731	0.754	0.551	0.383	0.989
NCI-H1355	0.55	0.592	0.416	0.354	1.15	1.05	1.14	1.15	1.04	0.953	1.02	0.963	1.08	0.937	–	0.493	0.419	0.42	0.264	0.971
NCI-H838	0.278	0.261	0.284	0.197	0.875	–	1.15	0.651	0.277	0.244	0.252	0.16	1.12	1.28	0.685	0.606	0.507	0.498	0.291	1.04
EPLC-272H	0.331	0.389	0.389	0.293	0.945	0.872	0.959	0.696	0.412	0.295	0.318	0.542	0.702	0.788	0.508	0.298	0.274	0.27	0.205	0.716
NCI-H1975	0.873	0.704	0.643	0.162	0.404	0.375	0.445	0.201	0.3	0.285	0.294	0.209	–	0.994	0.649	0.526	0.32	0.291	0.242	0.958
NCI-H2228	0.273	0.283	0.18	0.182	1.24	0.893	1.02	0.615	0.361	0.323	0.244	0.31	0.993	0.819	0.543	0.802	0.377	0.356	0.266	0.714
RERF-LC-KJ	0.532	0.489	0.41	0.221	1.12	0.992	1.17	0.992	0.485	0.458	0.524	0.417	0.969	0.882	0.849	0.753	–	0.86	0.65	0.829
LXF-289	0.178	0.184	0.177	0.174	0.98	0.997	1.03	0.926	0.886	0.782	0.932	0.787	–	1.06	0.943	0.638	–	0.617	0.513	0.992
NCI-H2405	0.819	0.743	0.751	0.613	1.03	0.905	1	0.926	1.12	0.902	1.13	0.982	1.14	1.07	0.92	0.784	0.461	0.413	0.324	1.04
NCI-H460	0.514	0.386	0.414	0.0751	1.01	1.02	0.972	–	0.0604	0.0653	0.0731	0.0582	0.972	0.972	0.622	0.225	0.154	0.126	0.0388	0.997
NCI-H1915	0.454	0.409	0.397	0.374	1.01	0.766	0.923	0.99	0.423	0.45	0.433	0.504	1.08	1.03	1.09	0.322	0.289	0.204	0.125	0.969
LCLC-103H	0.489	0.548	0.419	0.569	1.08	1.23	1.05	1.08	0.526	0.437	0.422	0.451	0.793	0.813	0.882	0.68	0.731	0.691	0.674	0.794
NCI-H1666	0.681	0.641	0.581	0.503	–	0.66	0.851	–	0.916	0.856	–	0.62	0.976	–	0.889	0.954	0.764	0.762	0.639	0.93
LU99A	0.305	0.278	0.247	0.26	1.21	1.12	1.06	0.714	0.195	0.166	0.193	0.138	0.741	0.78	0.728	0.509	0.404	0.252	0.263	0.758

Cell Line	relative viability ([1]; first compound 0.08 µM)	relative viability ([1]; first compound 0.253 µM)	relative viability ([1]; first compound 2.53 µM)	relative viability ([1]; first compound 8 µM)	relative viability ([2]; first compound 0.08 µM)	relative viability ([2]; first compound 0.253 µM)	relative viability ([2]; first compound 2.53 µM)	relative viability ([2]; first compound 8 µM)	relative viability ([3]; first compound 0.08 µM)	relative viability ([3]; first compound 0.253 µM)	relative viability ([3]; first compound 2.53 µM)	relative viability ([3]; first compound 8 µM)	relative viability ([4]; first compound 0.08 µM)	relative viability ([4]; first compound 2.53 µM)	relative viability ([4]; first compound 8 µM)	relative viability ([5]; first compound 0.08 µM)	relative viability ([5]; first compound 0.253 µM)	relative viability ([5]; first compound 2.53 µM)	relative viability ([5]; first compound 8 µM)	relative viability ([4]; first compound 0.253 µM)
NCI-H2009	0.775	0.666	0.723	0.498	0.898	0.689	0.912	0.522	1.02	0.909	0.83	0.959	1.27	1.09	0.916	0.339	0.282	0.204	0.159	1.18
NCI-H1755	0.498	0.532	0.471	0.456	0.921	0.945	0.988	0.689	–	0.385	0.419	0.355	0.926	0.921	0.729	0.8	0.761	0.71	0.557	0.863
LOU-NH91	0.69	0.681	0.767	0.647	0.548	0.454	0.552	0.537	0.419	0.37	0.436	–	1.02	1.08	0.942	0.782	0.769	0.837	0.746	0.973
HOP-62	0.431	0.331	0.338	0.155	0.639	0.64	–	0.232	0.324	0.303	0.193	0.135	1.05	0.749	0.676	0.438	0.45	0.372	0.209	0.916
LC-2-ad	0.405	0.478	0.478	0.462	1.25	1.01	0.914	0.618	0.305	0.293	0.258	0.274	0.923	0.985	0.744	0.934	0.822	0.732	0.396	0.989
NCI-H647	0.246	0.218	0.165	0.0549	1.17	0.829	0.745	0.39	0.171	0.141	0.126	0.0896	1.25	0.987	0.48	0.583	0.388	0.235	0.144	1
NCI-H23	0.362	0.286	0.276	0.219	0.97	0.89	0.804	0.861	0.764	0.609	0.716	0.421	1.03	0.833	0.871	0.406	0.397	0.288	0.225	0.977
ChaGo-K-1	0.229	0.235	0.215	0.192	1.18	0.781	1.16	0.451	0.247	0.258	0.264	0.248	0.961	0.9	–	0.884	0.855	0.886	0.708	0.965
NCI-H1437	0.419	0.384	0.416	0.291	0.629	0.513	0.59	–	0.335	0.312	0.268	0.184	1.26	1.13	0.742	0.59	0.389	0.533	0.342	1.17
SK-LU-1	0.346	0.347	0.325	0.211	1.16	1.07	1.11	0.735	1.06	0.871	0.897	0.388	0.857	0.761	0.692	0.726	0.44	0.302	0.234	0.632
NCI-H1993	0.601	0.565	0.584	0.608	1.6	0.994	1.24	1.07	0.566	0.597	0.528	0.43	0.778	0.86	0.543	0.515	0.521	0.529	0.506	0.746
NCI-H2126	0.93	0.842	0.866	–	1.14	1.17	1.09	1.16	0.763	0.672	0.681	0.706	1.26	1.1	1.2	0.581	0.541	0.623	0.589	1.09
BEN	0.519	0.423	0.536	0.482	0.951	0.659	–	0.631	0.839	0.657	–	0.674	0.755	0.811	0.526	1.11	0.911	0.945	0.913	0.518
NCI-H3122	0.44	0.363	0.363	0.301	0.993	0.984	1.06	0.952	0.209	0.194	0.222	0.167	0.985	1.01	0.618	0.234	0.208	0.176	0.129	0.993
EMC-BAC-2	0.297	0.186	0.266	0.295	1.06	0.917	1.07	1.02	0.438	0.389	0.41	0.516	1.02	1	0.658	0.86	–	0.7	0.44	0.819
201T	0.964	0.925	0.955	0.827	1.1	1.07	1.19	1.18	0.334	0.302	0.334	0.328	1.23	1.11	0.884	0.679	0.726	0.735	0.762	–
